The assay addresses T1, Lipolase® 100L (Thermomyces lanuginosus, UniProt O59952).
T1 construct: purchased Sigma-Aldrich
T1 sequence (O59952 23-291): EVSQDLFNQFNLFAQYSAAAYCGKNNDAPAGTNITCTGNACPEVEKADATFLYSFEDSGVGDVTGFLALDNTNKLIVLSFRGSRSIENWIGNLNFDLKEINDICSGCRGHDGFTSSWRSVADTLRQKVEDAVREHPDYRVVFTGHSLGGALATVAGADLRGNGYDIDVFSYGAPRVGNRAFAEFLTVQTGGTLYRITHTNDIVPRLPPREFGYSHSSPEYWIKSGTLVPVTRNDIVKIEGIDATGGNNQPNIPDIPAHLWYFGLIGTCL
As to the kind of experiment: Lipase storage stability in liquid formulations at 37° C. (pNP-valerate activity). The class given is biochemical, Thermomyces lanuginosa. To be noted: for lipase activity, 3 d: 3 d storage at 37° C.; for lipase activity, 7 d: 7 d storage at 37° C.; for lipase activity, 14 d: 14 d storage at 37° C.; for lipase activity, 21 d: 21 d storage at 37° C.; for lipase activity, 28 d: 28 d storage at 37° C.; for lipase activity, 35 d: 35 d storage at 37° C.; for lipase activity, T0: relative to 100% value of reference formulation at time 0. The protocol: The storage stability of Lipase was assessed at 37° C.
Base test formulations were manufactured by making base formulations I to V by mixing the components according to Table 1.
The respective component (a) or comparative compound was added, if applicable, to the respective base formulation in amounts as indicated in Table 1.
Lipase used: Lipolase® 100L (CAS-No. 9001-62-1, EC-No. 232-619-9) was purchased from Sigma-Aldrich.
The amount of lipase as provided in Table 1 refers to active protein.
Water was added to accomplish the balance to 100.
Lipolase activity at certain points in time as indicated in Table 2 was be determined by employing pNitrophenol-valerate (2.4 mM pNP-C5 in 100 mM Tris pH 8.0, 0.01% Triton X100) as a substrate. The absorption at 405 nm was measured at 20° C. every 30 seconds over 5 minutes.
The slope (absorbance increase at 405 nm per minute) of the time dependent absorption-curve is directly proportional to the activity of the lipase.
The […] activity values provided in Table 2 were calculated referring to the 100% value determined in the reference formulation at the time 0.
The nomenclature of formulations is as follows: the Roman number before the full stop characterizes the base formulation, the Arabian number the type of compound (A.# compound according to invention (component (a)); (B.#) comparative compound).

[1] abbreviates: base formulation II. (Lipolase 0.2 wt%, tested compound 2.5 wt%).
The mark [2] stands for this setting: base formulation III. (Lipolase 0.2 wt%, tested compound 2.0 wt%).
The mark [3] stands for this setting: base formulation IV. (Lipolase 0.2 wt%, tested compound 2.0 wt%).
Where [4] appears, read: base formulation V. (Lipolase 0.2 wt%, tested compound 2.0 wt%).
Setting [5] is: base formulation I. (Lipolase 0.2 wt%, tested compound 2.5 wt%).

Here are results for five molecules from patent US20210395651A1, “COMPOUNDS STABILIZING HYDROLASES IN LIQUIDS” (BASF SE, priority 2018, published 2021).

With `CCOC(=O)CC(O)(CC(=O)O)C(=O)O` (centres unmarked) [A.6, Monoethylcitrate], under setting [1], the “lipase activity, 3 d” value stood at 100%; the “lipase activity, 7 d” value is recorded as 95%; the “lipase activity, 14 d” value is given as 91%; the “lipase activity, 21 d” value is 84%. Moreover, under setting [1], the “lipase activity, 28 d” value was determined as 80%; the “lipase activity, 35 d” value is listed as 71%; the “lipase activity, T0” value was found to be 102%. Further, under setting [2], the “lipase activity, 3 d” value was determined as 96%; the “lipase activity, 7 d” value stood at 91%; the “lipase activity, 14 d” value is given as 87%; the “lipase activity, 21 d” value is 82%. Further, under setting [2], the “lipase activity, 28 d” value came out at 79%; the “lipase activity, 35 d” value is on record as 74%; the “lipase activity, T0” value stood at 96%. Further, under setting [3], the “lipase activity, 3 d” value is reported as 96%; the “lipase activity, 7 d” value is recorded as 92%; the “lipase activity, 14 d” value was determined as 89%; the “lipase activity, 21 d” value turned out to be 86%. Further, under setting [3], the “lipase activity, 28 d” value is 85%; the “lipase activity, 35 d” value was 78%; the “lipase activity, T0” value was 98%.
Take `O=C(CC(O)(CC(=O)OCc1ccccc1)C(=O)OCc1ccccc1)OCc1ccccc1` [A.8, Tribenzylcitrate]: under setting [1], the “lipase activity, 3 d” value is listed as 94%; the “lipase activity, 7 d” value was determined as 90%; the “lipase activity, 14 d” value was 87%; the “lipase activity, 21 d” value is 83%. In addition, under setting [1], the “lipase activity, 28 d” value was 81%; the “lipase activity, 35 d” value amounted to 77%; the “lipase activity, T0” value is given as 97%. For the same molecule, under setting [4], the “lipase activity, 3 d” value is 96%; the “lipase activity, 7 d” value turned out to be 93%; the “lipase activity, 14 d” value amounted to 88%; the “lipase activity, 21 d” value is 85%. Further, under setting [4], the “lipase activity, 28 d” value was 82%; the “lipase activity, 35 d” value worked out at 77%; the “lipase activity, T0” value was 98%.
With `O=C(O)CC(O)(CC(=O)O)C(=O)O` [B.1, citric acid, reference compound], under setting [5], the “lipase activity, 3 d” value came out at 89%; the “lipase activity, 7 d” value was 81%; the “lipase activity, 14 d” value is on record as 73%; the “lipase activity, 21 d” value was found to be 61%. Besides, under setting [5], the “lipase activity, 28 d” value was 50%; the “lipase activity, 35 d” value came to 29%; the “lipase activity, T0” value came to 100%. Besides, under setting [2], the “lipase activity, 3 d” value was 92%; the “lipase activity, 7 d” value was found to be 78%; the “lipase activity, 14 d” value is 70%; the “lipase activity, 21 d” value is reported as 51%. For the same molecule, under setting [2], the “lipase activity, 28 d” value stood at 39%; the “lipase activity, 35 d” value is 30%; the “lipase activity, T0” value came out at 102%. Further, under setting [3], the “lipase activity, 3 d” value is 95%; the “lipase activity, 7 d” value was 82%; the “lipase activity, 14 d” value was 70%; the “lipase activity, 21 d” value was determined as 58%. Further, under setting [3], the “lipase activity, 28 d” value was determined as 43%; the “lipase activity, 35 d” value turned out to be 36%; the “lipase activity, T0” value turned out to be 97%. Also, under setting [4], the “lipase activity, 3 d” value stood at 93%; the “lipase activity, 7 d” value worked out at 86%; the “lipase activity, 14 d” value stood at 74%; the “lipase activity, 21 d” value is 63%. Under setting [4], the “lipase activity, 28 d” value was 52%; the “lipase activity, 35 d” value came to 43%; the “lipase activity, T0” value amounted to 98%.
As for `O=C([O-])CC(O)(CC(=O)[O-])C(=O)[O-].[Na+].[Na+].[Na+]` [B.2, citric acid trisodiumsalt, reference compound], under setting [5], the “lipase activity, 3 d” value is recorded as 90%; the “lipase activity, 7 d” value came out at 81%; the “lipase activity, 14 d” value was 68%; the “lipase activity, 21 d” value is reported as 57%. For the same molecule, under setting [5], the “lipase activity, 28 d” value worked out at 47%; the “lipase activity, 35 d” value is on record as 31%; the “lipase activity, T0” value worked out at 97%. Further, under setting [1], the “lipase activity, 3 d” value is listed as 95%; the “lipase activity, 7 d” value came out at 82%; the “lipase activity, 14 d” value stood at 63%; the “lipase activity, 21 d” value stood at 56%. In addition, under setting [1], the “lipase activity, 28 d” value turned out to be 41%; the “lipase activity, 35 d” value is on record as 34%; the “lipase activity, T0” value was 98%. Under setting [2], the “lipase activity, 3 d” value was 94%; the “lipase activity, 7 d” value is listed as 80%; the “lipase activity, 14 d” value came to 69%; the “lipase activity, 21 d” value came out at 53%. Under setting [2], the “lipase activity, 28 d” value was 44%; the “lipase activity, 35 d” value stood at 37%; the “lipase activity, T0” value was determined as 101%. In addition, under setting [3], the “lipase activity, 3 d” value was 90%; the “lipase activity, 7 d” value came to 81%; the “lipase activity, 14 d” value is listed as 68%; the “lipase activity, 21 d” value is listed as 55%. For the same molecule, under setting [3], the “lipase activity, 28 d” value turned out to be 40%; the “lipase activity, 35 d” value worked out at 34%; the “lipase activity, T0” value is reported as 96%.
In the case of `CCOC(=O)C(=O)OCC` [B.3, diethyloxalate, reference compound], under setting [5], the “lipase activity, 3 d” value is 90%; the “lipase activity, 7 d” value was 80%; the “lipase activity, 14 d” value worked out at 70%; the “lipase activity, 21 d” value was determined as 54%. Besides, under setting [5], the “lipase activity, 28 d” value was 45%; the “lipase activity, 35 d” value is 37%; the “lipase activity, T0” value turned out to be 97%. Besides, under setting [2], the “lipase activity, 3 d” value is on record as 94%; the “lipase activity, 7 d” value is recorded as 79%; the “lipase activity, 14 d” value was found to be 69%; the “lipase activity, 21 d” value is reported as 50%. Besides, under setting [2], the “lipase activity, 28 d” value stood at 40%; the “lipase activity, 35 d” value came to 32%; the “lipase activity, T0” value came to 98%. Under setting [3], the “lipase activity, 3 d” value amounted to 93%; the “lipase activity, 7 d” value came to 86%; the “lipase activity, 14 d” value is on record as 74%; the “lipase activity, 21 d” value is 63%. Besides, under setting [3], the “lipase activity, 28 d” value amounted to 51%; the “lipase activity, 35 d” value is given as 46%; the “lipase activity, T0” value amounted to 98%. Under setting [4], the “lipase activity, 3 d” value turned out to be 92%; the “lipase activity, 7 d” value worked out at 85%; the “lipase activity, 14 d” value was determined as 71%; the “lipase activity, 21 d” value was determined as 65%. In addition, under setting [4], the “lipase activity, 28 d” value is reported as 56%; the “lipase activity, 35 d” value was 46%; the “lipase activity, T0” value is reported as 97%.
